In patent US8895568B2, “Compositions comprising substituted pteridines as agrochemicals” (Dow AgroSciences LLC, priority 2009, dated 2014):

Legend:
Assay type in all cases: in vivo
Cochliobolus sativus = experiment: Spot Blotch of Wheat (COCHSA), foliar spray, percent disease control; details: Bipolaris sorokiniana, foliar; read-out: COCHSA percent control
[1] = test system: Pseudoperonospora cubensis; experiment: Cucumber Downy Mildew (PSPECU), foliar spray, percent disease control; details: foliar, read-out: PSPECU percent control
Experimental: The activity of the compounds as effective fungicides was determined by applying the compounds to plants and observing control of fungal disease. The compounds were formulated at 200 ppm in 10 vol. % acetone plus 90 vol. % Triton X water (deionized water 99.99 wt %+0.01 wt % Triton X100), giving a “formulated test compound.” In a few cases, compounds were formulated at 75 or 8.3 ppm rather than 200 ppm in 10 vol. % acetone plus 90 vol. % Triton X water (deionized water 99.99 wt. %+0.01 wt. % Triton X100), giving a “formulated test compound.” Formulated test compounds were applied to plants using a turn table sprayer fitted with two opposing air atomization nozzles which delivered approximately 1500 L/ha of spray volume. All plants were inoculated with spores of the fungus the day after treatment, then incubated in an environment conducive to disease development. Disease severity was evaluated 4 to 15 days later, depending on the disease and the speed of disease development. The following experiments were performed in the laboratory to determine the fungicidal efficacy of the compounds of the invention. Cucumber Downy Mildew (causal agent Pseudoperonospora cubensis; Bayer code […]): Cucumber plants (variety Bush Champion) were grown from seed in a soil-less peat-based potting mixture (Metromix) until the first true leaf was 20-80% expanded. Each pot contained 1 seedling. These plants were sprayed until wet with the formulated test compound. On the following day, the leaves were inoculated with an aqueous suspension of downy mildew sporangia and the plants were kept in high humidity for one day to permit sporangia to germinate and infect the leaf. The plants were then incubated in a growth chamber until disease developed on untreated control plants. […] The effectiveness of the test compounds at controlling disease when sprayed on leaves was determined by assessing the severity of disease on treated plants, then converting the severity to percent control based on the level of disease on untreated, inoculated plants. Data are the level (in percent) at which the given disease was controlled when the given compound was applied to the foliage of the plants at 200 ppm. In a few cases (noted in the table) the compound was applied to the plants at 75 ppm or 8.3 ppm.

Colletotricum lagenarium = experiment: Cucumber Anthracnose (COLLLA), foliar spray, percent disease control; details: foliar
Experimental: The activity of the compounds as effective fungicides was determined by applying the compounds to plants and observing control of fungal disease. The compounds were formulated at 200 ppm in 10 vol. % acetone plus 90 vol. % Triton X water (deionized water 99.99 wt %+0.01 wt % Triton X100), giving a “formulated test compound.” In a few cases, compounds were formulated at 75 or 8.3 ppm rather than 200 ppm in 10 vol. % acetone plus 90 vol. % Triton X water (deionized water 99.99 wt. %+0.01 wt. % Triton X100), giving a “formulated test compound.” Formulated test compounds were applied to plants using a turn table sprayer fitted with two opposing air atomization nozzles which delivered approximately 1500 L/ha of spray volume. All plants were inoculated with spores of the fungus the day after treatment, then incubated in an environment conducive to disease development. Disease severity was evaluated 4 to 15 days later, depending on the disease and the speed of disease development. The following experiments were performed in the laboratory to determine the fungicidal efficacy of the compounds of the invention. Cucumber Anthracnose (causal agent Colletotricum lagenarium; Bayer code COLLLA): Cucumber plants (variety Bush Champion) were grown from seed in a soil-less peat-based potting mixture (Metromix) until the first true leaf was 20-80% expanded. Each pot contained 1 seedling. These plants were sprayed until wet with the formulated test compound. On the following day, the leaves were inoculated with an aqueous spore suspension of Colletotricum lagenarium and the plants were kept in high humidity for one day to permit spores to germinate and infect the leaf. The plants were then transferred to a growth chamber until disease developed on untreated control plants. […] The effectiveness of the test compounds at controlling disease when sprayed on leaves was determined by assessing the severity of disease on treated plants, then converting the severity to percent control based on the level of disease on untreated, inoculated plants. Data are the level (in percent) at which the given disease was controlled when the given compound was applied to the foliage of the plants at 200 ppm. In a few cases (noted in the table) the compound was applied to the plants at 75 ppm or 8.3 ppm.

Row | Structure (SMILES) | pest or weed control at 200 µg/mL (Cochliobolus sativus) [%] | pest or weed control at 200 µg/mL [1] [%] | pest or weed control at 200 µg/mL (Colletotricum lagenarium) [%]
1 | c1ccc(COc2ccc(CCNc3ncnc4nccnc34)cc2)cc1 [Compound 1, [2-(4-Benzyloxyphenyl)-ethyl]-pteridin-4-yl-amine] | 50 to 79 | 80 to 100 | 80 to 100
2 | FC(F)(F)c1ccnc(Oc2ccc(CCNc3ncnc4nccnc34)cc2)n1 [Compound 3] | 0 to 49 | 80 to 100 | 50 to 79
3 | Oc1ccc(CCNc2ncnc3nccnc23)cc1 [Compound 4, 4-[2-(Pteridin-4-ylamino)-ethyl]-phenol] | 0 to 49 | 0 to 49 | 0 to 49
4 | CC(Nc1ncnc2nccnc12)c1ccccc1 (stereo not drawn) [Compound 9] | 0 to 49 | 80 to 100 | 0 to 49
5 | COc1ccnc(Oc2ccc(CCNc3ncnc4nccnc34)cc2)n1 [Compound 16] | 0 to 49 | 80 to 100 | 0 to 49
6 | COc1ccc(C(C)Nc2ncnc3nccnc23)cc1 (stereo not drawn) [Compound 17] | 0 to 49 | 80 to 100 | 50 to 79
7 | N#Cc1nccnc1Oc1ccc(CCNc2ncnc3nccnc23)cc1 [Compound 18] | 0 to 49 | 80 to 100 | 0 to 49
8 | COc1ccc(C(C)Nc2nc(C)nc3nccnc23)cc1 (stereo not drawn) [Compound 19, [1-(4-Methoxyphenyl)ethyl]-2-methylpteridin-4-yl-amine] | 0 to 49 | 0 to 49 | 0 to 49
9 | Oc1cccc(CCNc2ncnc3nccnc23)c1 [Compound 20] | 0 to 49 | 0 to 49 | 0 to 49
10 | COc1nsc(Oc2ccc(CCNc3ncnc4nccnc34)cc2)n1 [Compound 21] | 0 to 49 | 50 to 79 | 50 to 79
11 | c1ccc(-c2nsc(Oc3ccc(CCNc4ncnc5nccnc45)cc3)n2)cc1 [Compound 22] | 0 to 49 | 50 to 79 | 50 to 79
12 | c1cc(-c2nnc(Oc3ccc(CCNc4ncnc5nccnc45)cc3)s2)ccn1 [Compound 23] | 0 to 49 | 0 to 49 | 0 to 49
13 | Clc1nccc(Oc2ccc(CCNc3ncnc4nccnc34)cc2)n1 [Compound 24] | 0 to 49 | 80 to 100 | 50 to 79
14 | CC(C)Cc1nnc(Oc2ccc(CCNc3ncnc4nccnc34)cc2)s1 [Compound 26] | 0 to 49 | 80 to 100 | 0 to 49
15 | c1ccc(OCc2nnc(Oc3ccc(CCNc4ncnc5nccnc45)cc3)s2)cc1 [Compound 27] | 0 to 49 | 0 to 49 | 0 to 49
16 | [O-][n+]1ccnc(Oc2ccc(CCNc3ncnc4nccnc34)cc2)c1 [Compound 29] | 0 to 49 | 80 to 100 | 0 to 49
17 | Brc1nsc(Oc2ccc(CCNc3ncnc4nccnc34)cc2)n1 [Compound 33] | 0 to 49 | 0 to 49 | 0 to 49
18 | N#Cc1c(Cl)cncc1Oc1ccc(CCNc2ncnc3nccnc23)cc1 [Compound 35] | 0 to 49 | 80 to 100 | 0 to 49
19 | COc1cc(CCNc2ncnc3nccnc23)ccc1O [Compound 37] | 0 to 49 | 0 to 49 | 0 to 49

Row | Structure (SMILES) | pest or weed control at 200 µg/mL (Cochliobolus sativus) [%] | pest or weed control at 200 µg/mL [1] [%] | pest or weed control at 200 µg/mL (Colletotricum lagenarium) [%]
20 | Cc1cnc2ncnc(NCCc3ccc(O)cc3)c2n1 [Compound 38] | 0 to 49 | 0 to 49 | 0 to 49
21 | FC(F)(F)c1ccnc(Oc2cccc(CCNc3ncnc4nccnc34)c2)c1 [Compound 46] | 0 to 49 | 80 to 100 | 80 to 100
22 | FC(F)(F)c1ccc(Oc2cccc(CCNc3ncnc4nccnc34)c2)nc1 [Compound 47] | 0 to 49 | 80 to 100 | 50 to 79
23 | FC(F)(F)c1ccnc(Cl)c1Oc1ccc(CCNc2ncnc3nccnc23)cc1 [Compound 56] | 0 to 49 | 50 to 79 | 0 to 49
24 | COc1cc(CCNc2ncnc3nccnc23)ccc1Oc1cc(C#N)ccn1 [Compound 57] | 0 to 49 | 80 to 100 | 0 to 49
25 | N#Cc1c(Cl)cccc1Oc1ccc(CCNc2ncnc3nccnc23)cc1 [Compound 61] | 0 to 49 | 80 to 100 | 0 to 49
26 | COc1ccc(CCNc2ncnc3nccnc23)c(F)c1 [Compound 62] | 0 to 49 | 80 to 100 | 0 to 49
27 | CON=C(C)c1ccnc(Oc2ccc(CCNc3ncnc4nccnc34)cc2)c1 [Compound 63] | 0 to 49 | 80 to 100 | 0 to 49
28 | O=C(c1ccnc(Oc2ccc(CCNc3ncnc4nccnc34)cc2)c1)C1CC1 [Compound 64] | 0 to 49 | 80 to 100 | 0 to 49
29 | CC(Nc1ncnc2nccnc12)c1ccc(O)cc1 (stereo not drawn) [Compound 65, 4-[1-(Pteridin-4-ylamino)-ethyl]-phenol] | 0 to 49 | 50 to 79 | 0 to 49
30 | Cc1cc(C(F)(F)F)cc(Oc2ccc(CCNc3ncnc4nccnc34)cc2)n1 [Compound 69] | 0 to 49 | 80 to 100 | 80 to 100
31 | Fc1cnc(C(F)(F)F)c(F)c1Oc1cccc(CCNc2ncnc3nccnc23)c1 [Compound 71] | 0 to 49 | 0 to 49 | 0 to 49
32 | Fc1cnc(C(F)(F)F)c(F)c1Oc1ccc(CCNc2ncnc3nccnc23)cc1 [Compound 72] | 0 to 49 | 80 to 100 | 50 to 79
33 | Oc1ccc(CCNc2ncnc3ncc(Cl)nc23)cc1 [Compound 73] | 0 to 49 | 0 to 49 | 0 to 49
34 | Ic1ccnc(Oc2cccc(CCNc3ncnc4nccnc34)c2)c1 [Compound 74] | 0 to 49 | 80 to 100 | 0 to 49
35 | FC(F)(F)c1cnccc1Oc1cccc(CCNc2ncnc3nccnc23)c1 [Compound 77] | 0 to 49 | 80 to 100 | 0 to 49
36 | CC(Sc1ncnc2nccnc12)c1ccc(C#N)cc1 (stereo not drawn) [Compound 78] | 0 to 49 | 0 to 49 | 0 to 49
37 | Oc1ccc(OCCNc2ncnc3nccnc23)cc1 [Compound 80] | 0 to 49 | 0 to 49 | 0 to 49
